Earlier results in US20090022826A1, “Multi-step method of pain and/or inflammation treatment” (priority 2007, published 2009).

For `CCOCCOCCO` [Ethoxydiglycol, diethylene glycol monoethyl ether], the solubility in alcohol (alcohol) is listed as “soluble”, the “solubility in mineral oil” value (mineral oil) is listed as “insoluble” and the “solubility in vegetable oil” value (vegetable oil) is listed as “partially soluble”. For the same compound, the solubility in water (water) was “soluble”.
